According to patent publication US11306100B2, “Spirooxindole compounds as GSK3B inhibitors and process for preparation thereof” (COUNCIL OF SCIENTIFIC & INDUSTRIAL RESEARCH, priority 2017, dated 2022):

How the values were obtained:
[1] = tested on: PANC-1 cells; test: Colony formation (soft agar, clonogenic) assay; format: cell-based
Method: To determine the efficiency of GSK3β inhibitors in combination with the TRIAL on anchorage independent growth of PANC-1 cells soft agar assay were performed. The base agar (0.5%) was prepared by mixing equal amounts of 1% agar with 2× media (20% FBS and 2× antibiotics) filled in 6-well plate. Simultaneously, PANC-1 cells (14000/well) mixed with 2× media containing different concentrations of identified compounds alone or in combination with TRAIL mixed with 0.7% of sterile agar to achieve final concentration of […] top agar. The cell suspension was spread on solidified base agar. Then the plates were incubated in CO2 incubator for 14 days and the cells were fed with fresh media containing respective concentration and combination of TRIAL every 3 days. Upon termination (after 14 days of incubation) plates were stained with 0.005% of crystal violet for 1 h and excess stain was removed by washing with MQ. The number of blue colonies were counted using olympus Xi71 microscope.

[2] = tested on: PANC-1 cells; test: Cell cycle analysis / cell death by PI uptake, flow cytometry; format: cell-based; details: for cell death by FACS: 25 uM compound; for cell death (% of cells in subG1): in combination with TRAIL versus compounds alone or TRAIL alone
Method: To determine effect of GSK3β inhibitors on cell death and/or cell cycle progression, PANC-1 cells were treated with identified molecules with or without TRAIL. Upon treatment with compounds in combination with TRAIL, PANC-1 cell death was determined with propidium iodide (PI) uptake measured by Flow cytometry. Treated cells were harvested in cold PBS and fixed in 70% ethanol at −20° C. for overnight. The fixed cells were by centrifugation and re-suspended in PI ([…]) solution containing RNase (0.1 mg/mL) and Triton X-100 (0.05%). The cells were incubated in dark for 1 h at room temperature. The excess PI was washed out using PBS, the resultant PI uptake was analyzed by FACS Caliber System (BD Bio-science, Erembodegem, Belgium) in an FL-2 fluorescence detector (10000 events were recorded for each condition). Flow cytometry data was analyzed using FCS express 4 software (De Novo Software, Los Angeles, Calif., USA).

[3] = compound in the presence of TRAIL 10 ηg/mL

Row | Structure (SMILES) | inhibition of colony formation ([1]; compound alone, 14 days) | inhibition of colony formation [1, 3] | cell death by FACS [2] | cell death (% of cells in subG1) [2]
1 | CCOC(=O)c1ccc(-c2ccccc2OCc2cn(CC3CC4(CO3)C(=O)Nc3ccccc34)nn2)nc1C (centres unmarked) [AB-O, Ethyl 2-methyl-6-(2-((1-((2′-oxo-4,5-dihydro-2H-spiro[furan-3,3′-indoline]-5-yl)methyl)-1H-1,2,3-triazol-4-yl)methoxy)phenyl)nicotinate] | dose-dependent inhibition | more effective inhibition of colony formation | cell death even at 25 uM | more cell death
2 | COc1ccccc1N1CCN(CC2CC3(CO2)C(=O)Nc2ccccc23)CC1 (centres unmarked) [AB-U, 5-((4-(2-Methoxyphenyl)piperazin-1-yl)methyl)-4,5-dihydro-2H-spiro[furan-3,3′-indolin]-2′-one] | dose-dependent inhibition | more effective inhibition of colony formation | cell death even at 25 uM | more cell death
